We go through 6 molecules from US20240150396A1 (The Texas A&M University System, priority 2021, published 2024).

A short description of experiment [1]: Thiolation of inhibitors with glutathione, LCMS. It is filed as physicochemical. The conditions noted are these: 1 mM glutathione, 0.5 mM compound, Tris pH 8.0, 10% DMSO, room temperature. On the procedure:
Samples were analyzed by HPLC-MS (as described above) by injecting 0.01 mL aliquots onto a Luna […] C18(2) 100 Å, 4.6 mm, 50 mm column (Phenomenex) using the HPLC method described in the chemistry section at 0-6 h time points. […] Integration of the chromatographic peaks of the inhibitors and their GSH adducts at each time point was used to determine the rate of GSH adduct formation.

Experiment [2] concerns the target T1, cruzain (Trypanosoma cruzi, UniProt P25779). The experiment in a line: biochemical. The conditions noted are these: pH 7.5. How it is done: All enzyme assays were performed at 25° C. Initial rates of the peptidolytic reaction catalyzed by cruzain were measured by monitoring the fluorescence generated by cleavage of the dipeptide-AMC bond. Assays were conducted in 96-well plates (Greiner; flat-bottom, clear black plates) in a total volume of 250 μL, containing either 50 mM MES (pH 7.5), 50 mM TAPSO, 100 mM DEA, 1 mM CHAPS, 1 mM Na2EDTA, 5 mM DTT, and 10% DMSO (v/v) or 50 mM sodium acetate (pH 5.5), 50 mM MES, 100 mM TEA, 1 mM CHAPS, 1 mM Na2EDTA, 5 mM DTT, and 10% DMSO (v/v). Substrates were dissolved in 100% DMSO and were then diluted 10-fold such that when added to reaction mixtures, final DMSO concentration was 10% (v/v). […] Fluorescence was measured on either a SpectraMax M5 (Molecular Devices) or a Synergy HTX (BioTek, Winooski, VT) microplate reader (λex=360 nm, λem=460 nm). Initial rates were determined from continuous kinetic time courses and calculated from the earliest time points, typically at less than 10 min.
(2) Enzyme and compound were preincubated over extended periods of time, and then aliquots were removed and diluted 50-fold to 100-fold into reaction mixtures containing 10 μM Cbz-Phe-Arg-AMC, followed by the assessment of the resulting time courses.
Data for time-dependent inhibition were fitted by several methods.
Values of kobs versus [inhibitor] were then replotted and fitted to eq 4 for which k3 and k4 represent the respective rates of formation and dissolution of the EI* complex as depicted in FIG. 9.
In addition, time-course data were fitted globally by two methods. First, expressions for vs, vi, and kobs were substituted into eq 3 to generate eq 6, which was used to fit time-course data at all concentrations of inhibitors simultaneously. Second, time-course data were fitted using KinTek Explorer as either a single-binding step model with the two kinetic parameters k3/Ki and k4 or a two-step binding mechanism as shown in FIG. 9 from which rate constants k1-k4 are determined (Supporting Information).
Enzyme Assays. The preparation of cruzain and 3CL^pro were described in previous publications.^8, 34 The evaluation of inhibitors was modified from our lab protocol and described briefly as follows.^35 All enzyme assays were conducted in 96-well, clear bottom, black plates at 25° C., and fluorescence emanating from product formation was measured using either a SpectraMax M5 (Molecular Devices) or a Synergy HTX (Biotek) microplate reader, with excitation at λex=360 nm and emission at λem=460 nm. […] Reactions were started with addition of enzyme (typically, to a final concentration of 0.2 nM for cruzain or 40 nM for 3CL^pro), and the time courses were recorded for 0.5-1 h.
Kinetic Data Analysis. All time-course data were fitted to eq. 1, wherein P is the fluorescence generated by formation of AMC or liberated ACC, C is the background constant, vi and vs are respectively initial-state and steady-state reaction rates, t is time, and kobs is the observed rate of conversion of the initial inhibited rate to the final inhibited rate.^46
Overall inhibition constants (Ki* values) were obtained by fitting vs/v0 to eq. 4, wherein vs and v0 are steady-state reaction rates in the presence and absence of inhibitor respectively, [S] and [I] represent the fixed concentration of substrate and variable inhibitor, Km is the Michaelis constant of the substrate.

In experiment [3] the target is T1, cruzain. Description: Kinetic parameters of peptide substrates for cruzain. The class given is biochemical. On the procedure:
All enzyme assays were performed at 25° C. Initial rates of the peptidolytic reaction catalyzed by cruzain were measured by monitoring the fluorescence generated by cleavage of the dipeptide-AMC bond. Assays were conducted in 96-well plates (Greiner; flat-bottom, clear black plates) in a total volume of 250 μL, containing either 50 mM MES (pH 7.5), 50 mM TAPSO, 100 mM DEA, 1 mM CHAPS, 1 mM Na2EDTA, 5 mM DTT, and 10% DMSO (v/v) or 50 mM sodium acetate (pH 5.5), 50 mM MES, 100 mM TEA, 1 mM CHAPS, 1 mM Na2EDTA, 5 mM DTT, and 10% DMSO (v/v). Substrates were dissolved in 100% DMSO and were then diluted 10-fold such that when added to reaction mixtures, final DMSO concentration was 10% (v/v). Reactions were initiated with the addition of 1-10 μL of cruzain (final concentrations: 0.1-3.0 nM (preincubation studies)). Fluorescence was measured on either a SpectraMax M5 (Molecular Devices) or a Synergy HTX (BioTek, Winooski, VT) microplate reader (λex=360 nm, λem=460 nm). Initial rates were determined from continuous kinetic time courses and calculated from the earliest time points, typically at less than 10 min.
Initial velocity data for cruzain-catalyzed reactions of fluorogenic peptide substrates were determined by fitting to eq 1 using GraphPad Prism 6.0 or SigmaPlot 12.0. For eq 1, kcat is the turnover number, [E]t is the concentration of active sites of cruzain, and Ka is the Michaelis constant for the substrate A. Cruzain concentrations were determined by spectrophotometric analysis of purified sample solutions as described.^44

A further experiment deals with human cathepsin L (Homo sapiens (Human), UniProt P07711). The experiment in a line: Human cathepsin L inhibition, Z-FR-AMC assay. It is filed as biochemical. On the procedure:
(§1) Recombinant human cathepsins B and L were purchased from Millipore Sigma and used without further treatment. The solid proteins were dissolved into a solution of 50 mM sodium acetate (pH 5.5), 1 mM EDTA, 1 mM CHAPS, 10% (v/v) DMSO, and 5 mM DTT to final concentrations of […] in 20-mL aliquots, and stored at −80° C. until needed. These samples were then diluted into the same buffer to concentrations of −100 nM, and these dilutions were stored at 4° C. and used daily until depletion.
(§2) For assays of cathepsin L and B, inhibitors were evaluated in 0.25-mL reaction mixtures containing a buffer of sodium acetate (pH 5.5), 1 mM CHAPS, 1 mM Na2EDTA, and 5 mM DTT at 25° C. The fluorogenic substrate Cbz-Phe-Arg-7-amino-4-methyl-coumarin (Z-FR-AMC) was dissolved in 100% DMSO, as were all inhibitors, and aliquots of both substrates and inhibitors were added to reaction mixtures to final concentrations of DMSO of 10% (v/v). […] Formation of the fluorescent product AMC was monitored over 30-60-minute time courses for reaction mixtures in 96-well black microplates (Corning Costar®). Rates of peptidolysis of the dipeptide-AMC substrate(s) were measured on either a SpectraMax M5 (Molecular Devices) or a Synergy HTX (Biotek, Wisnooki, VT) microplate reader with λex=360 nm, λem=460 nm in ≥8-sec intervals. Control samples excluded substrate. The measured relative fluorescence units (RFUs) of generated AMC were converted to reaction rates of μM/s by use of a standard curve of known AMC concentrations obtained for both plate readers.

A further experiment addresses human cathepsin B (Homo sapiens (Human), UniProt P07858). The experiment in a line: Human cathepsin B inhibition, Z-FR-AMC assay. It is filed as biochemical. On the procedure:
as §1, §2

Experiment [4] deals with T. b. brucei procyclic forms. Description: Growth of axenic cultures of T. b. brucei procyclic forms (PCFs). The conditions noted are these: Trypanosoma brucei, axenic culture; read-out: EC50 T. b. brucei PCF. It is filed as cell-based, Trypanosoma brucei brucei.
For the next experiment, the target named is SARS-CoV-2 3CL protease (Severe acute respiratory syndrome coronavirus 2 (2019-nCoV) (SARS-CoV-2), UniProt P0DTD1). Description: biochemical. The class given is biochemical. The conditions noted are these: read-out: Ki* 3CLpro.
Experiment [5] has as its system T. b. brucei bloodstream forms. Description: Growth of axenic cultures of T. b. brucei bloodstream forms (BSFs). The conditions noted are these: Trypanosoma brucei, read-out: EC50 T. b. brucei BSF, axenic culture.
Method: Selected cruzain inhibitors were evaluated in axenic cell cultures of T. b. brucei and T. cruzi. Procyclic trypomastigotes of T. b. brucei (ATCC PRA-381) were grown in the SDM-79 medium at 26° C., and bloodstream forms (ATCC PRA-383) were grown at 37° C. in the HMI-9 medium at 5% C02. […] Both forms of T. b. brucei and T. cruzi were grown in media containing 10% fetal bovine serum (FBS) and penicillin/streptomycin (50 U mL^−1). […] Control samples contained equal amounts of DMSO. T. b. brucei and T. cruzi (5 mL in flask cultures) were seeded at ˜3×10^6 cells and diluted daily, maintaining a mid-log growth phase for up to 120 h. […] After each cell dilution, fresh compound or an equal volume of DMSO (control samples) was supplemented into the cultures, while maintaining a constant concentration of each inhibitor. Cell counts were scored using a Z2 Coulter Counter.
In vitro Cell Assays. Bloodstream form T. b. brucei strain SM427 was grown in HM1-9 medium that included fetal bovine serum (10%) and antibiotics (100 U/mL penicillin-streptomycin, Gibco™). Inhibitors dissolved in 100% (v/v) DMSO stock solutions were added at final concentrations of 0.5-20 μM (final concentrations of DMSO were <1% (v/v)). T. b. brucei were seeded at ˜1×10^6 cells at 37° C., and diluted daily to maintain a log phase of growth for up to 96 h. […] After each dilution, the cell cultures were supplemented with inhibitor or DMSO (control) to keep concentrations constant. Cell density was determined and graphed as previously reported.^36 Trypanosomes were quantified using a Z2 Coulter Counter, and values of EC50 were determined after 3-4 days of treatment by the interpolation method of Huber and Koella.^37
The subject of experiment [6] is T. cruzi (Ca-I/72) in C2C12 murine cardiomyoblasts. The experiment in a line: T. cruzi-infected murine cardiomyoblasts (C2C12). The class given is cell-based, Trypanosoma cruzi. The conditions noted are these: read-out: EC50 T. cruzi-infected cardiomyoblasts. On the procedure: For the evaluation of the antitrypanocidal activity of cruzain inhibitors, we infected a C2C12 mouse cardiomyoblast cell line (ATCC CRL-1772) with T. cruzi strain Ca-I/72 (a gift from James Dvorak, National Institutes of Health) in […] plates. […] The plates were incubated at 37° C. for 48 h, and the wells were fixed with 2% paraformaldehyde in PBS and stained with 5 μg mL-1 4,6-diamidino-2-phenylindole. After at least 30 min of incubation at room temperature in the dark, the plates were read in an automated microscope, ImageXpress Micro XL (Molecular Devices), and the images were analyzed by custom-built software to quantify and assess viability of the parasites, as well as the host cells independently. The compilation of data was used to calculate the antiparasitic activity (EC50) and host cytotoxicity (CC50).
T. cruzi infection was evaluated in C2C12 murine cardiomyoblast cells. 384-microwell plates containing C2C12 murine cardiomyoblast cells were infected with 10^3 and 10^4 cells of T. cruzi (Ca-I/72), to which was added 3-fold serially-dilutions of inhibitor with maximal concentrations of 10 μM, followed by incubation at 37° C. for 2 days. The wells were fixed with 2% PFA in PBS, and stained by 5 μg/ml of DAPI. After >30 min of incubation in a dark environment, the plates were read on an ImageXpress MicroXL microscope (Molecular Devices). The images were analyzed to quantify parasites as well host cells.

[7] abbreviates: apparent tight-binding inhibition constant, 25° C., read-out: Ki*.
Setting [8] is: pH 7.5, 25° C., 10% DMSO, listed as Cbz-Phe-Arg-AMC.
Setting [9] is: obtained >10 minutes following initiation of reaction by addition of enzyme, read-out: Ki* Cruzain.
Where [10] appears, read: Trypanosoma cruzi, C2C12, C2C12 murine cardiomyoblasts.

Where two headings read alike, the source gives them in different places. Non-standard residues stand in square brackets, D forms with d. Residues, ends and D or L forms follow the SMILES beside them. *: point of attachment. Phe(2-OMe) = COc1ccccc1C[C@H](N)C(=O)O; AMC = Cc1cc(=O)oc2cc(N*)ccc12; Cbz = O=C(OCc1ccccc1)*

As a reminder, the Km is the concentration of substrate that gives half-maximal velocity. As a reminder, the kcat is the number of substrate molecules converted per active site and unit of time at saturation. By kcat/Km is commonly meant the second-order rate constant that governs catalysis at low substrate concentration. One may read the EC50 as the midpoint of the concentration-response curve.

T1 sequence (P25779 123-467 limits assumed): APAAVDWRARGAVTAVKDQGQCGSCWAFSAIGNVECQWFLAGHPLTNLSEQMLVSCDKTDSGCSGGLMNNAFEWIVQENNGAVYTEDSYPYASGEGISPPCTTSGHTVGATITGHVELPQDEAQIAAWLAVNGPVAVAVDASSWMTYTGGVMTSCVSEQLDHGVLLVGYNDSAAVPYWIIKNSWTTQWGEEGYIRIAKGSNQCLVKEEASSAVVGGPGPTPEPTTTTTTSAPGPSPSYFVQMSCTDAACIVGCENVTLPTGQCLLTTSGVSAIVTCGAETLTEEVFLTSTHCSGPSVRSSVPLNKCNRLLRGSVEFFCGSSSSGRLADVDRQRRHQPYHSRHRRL
Sequence of human cathepsin L (P07711 114-333): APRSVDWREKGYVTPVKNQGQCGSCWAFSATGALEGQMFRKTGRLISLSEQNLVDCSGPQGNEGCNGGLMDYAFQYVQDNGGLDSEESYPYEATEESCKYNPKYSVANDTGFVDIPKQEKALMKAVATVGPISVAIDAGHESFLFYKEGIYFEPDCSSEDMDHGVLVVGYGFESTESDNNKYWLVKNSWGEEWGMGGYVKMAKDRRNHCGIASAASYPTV

On to `O=C(N[C@@H](Cc1ccccc1)C(=O)N[C@H](/C=C/c1nccs1)Cc1ccccc1)OCc1ccccc1` [Compound 25, Benzyl ((S)-1-Oxo-3-phenyl-1-(((S,E)-1-phenyl-4-(thiazol-2-yl)-but-3-en-2-yl)amino)propan-2-yl)carbamate], for which the “Rate of Thiolation, k” value in experiment [1] was “Negligible”. Further, at cruzain [2] (setting [7]), the Ki was 1710 nM.

For the molecule `Cc1cc(=O)oc2cc(NC(=O)[C@H](CCCN=C(N)N)NC(=O)[C@H](Cc3ccccc3)NC(=O)OCc3ccccc3)ccc12` [Compound S1, Cbz-Phe-Arg-AMC] (Cbz-Phe-Arg-{AMC}), the Km on cruzain [3] (pH 7.5, 25° C., 10% DMSO) was determined as 0.89 ± 0.09 µM; at cruzain [3] (setting [8]), 0.9 µM; at human cathepsin L (pH 5.5) it was 2.9 µM; at human cathepsin B (pH 5.5), 150 µM. For the same molecule, on cruzain [3] (pH 7.5, 25° C., 10% DMSO), the kcat worked out at 9.6 ± 0.2 s⁻¹. For the same molecule, the kcat/Km on cruzain [3] (pH 7.5, 25° C., 10% DMSO) amounted to 1.1e+07 ± 1e+06 M⁻¹ s⁻¹; on cruzain [3] (setting [8]), 1.1e+07 M⁻¹ s⁻¹. Further, the kcat rel at cruzain [3] (relative to Cbz-Phe-Arg-AMC) is 1.00.

For the molecule `Cc1ccc2c(c1)C[C@H](NC(=O)[C@H](Cc1ccccc1)NC(=O)OCc1ccccc1)C(O)O2` (stereo partly drawn) [Compound 32, Benzyl ((2S)-1-(((3S)-2-hydroxy-6-methylchroman-3-yl)amino)-1-oxo-3-phenylpropan-2-yl)carbamate], the Ki on human cathepsin L (pH 5.5, 25° C., read-out: Ki* hCatL) is 58 ± 2 nM; at SARS-CoV-2 3CL protease (pH 7.5), above 10000 nM; on cruzain [2] (Ki* Cruzain, obtained >10 minutes following initiation of reaction by addition of enzyme), 100 nM; at cruzain [2] (setting [9]) it was 103 ± 5 nM; on human cathepsin B (pH 5.5, 25° C., read-out: Ki* hCatB), 6100 ± 900 nM. For the same molecule, the EC50 in experiment [4] was 7000 nM; in experiment [5], 500 nM; in experiment [6] (C2C12 murine cardiomyoblasts), 3000 to 5700 nM; in experiment [6] (setting [10]), 5700 ± 600 nM.

On to `C[n+]1ccsc1/C=C/[C@H](Cc1ccccc1)NC(=O)[C@H](Cc1ccccc1)NC(=O)OCc1ccccc1.[I-]` [Compound 26, 2-((S,E)-3-((S)-2-(((Benzyloxy)carbonyl)amino)-3-phenylpropanamido)-4-phenylbut-1-en-1-yl)-3-methylthiazol-3-ium Iodide], for which the “Rate of Thiolation, k” value in experiment [1] turned out to be 0.25 ± 0.083 M⁻¹ s⁻¹. Moreover, the Ki at cruzain [2] (setting [7]) is 940 ± 60 nM.

Regarding `NCCCC[C@@H](/C=C/c1ccccn1)NC(=O)[C@H](Cc1ccccc1)NC(=O)OCc1ccccc1` [Compound 20, (S,E)-5-((S)-2-(((Benzyloxy)carbonyl)amino)-3-phenylpropanamido)-7-(pyridin-2-yl)hept-6-en-1-aminium Chloride], the Ki stood at 17300 ± 300 nM on cruzain [2] (apparent initial inhibition constant, 25° C., read-out: Ki) and 870 nM on cruzain [2] (setting [7]). Further, the EC50 in experiment [6] (setting [10]) was in the range of 5000 to 8000 nM.

As to `COc1ccccc1C[C@@H](C=O)NC(=O)[C@H](Cc1ccccc1)NC(=O)OCc1ccccc1` [Compound 29] (Cbz-Phe-[Phe(2-OMe)]-aldehyde), the Ki at SARS-CoV-2 3CL protease was above 10000 nM; at cruzain [2] (setting [9]), 22 nM.
